ChEMBL document CHEMBL1151629, “Lariciresinol derivatives from Turrea nilotica and Monechma ciliatum” (1984)

Test system: KB
Assay: Cytotoxicity against human KB cells
Type: functional
Conditions: read-out: ED50 (the source's name)

## COc1cc(C[C@H]2CO[C@H](c3ccc(OC)c(OC)c3)[C@H]2CO)ccc1O
  EC50: > 10 µg/mL
